Values after ≈ are worked out from the molar mass of the structure shown.
Experiments:
elastase = target: T1, elastase; test: absorbance at […] nm, nitroanilide release; type: biochemical; details: N-(methoxysuccinyl)-Ala-Ala-Pro-Val-4-nitroanilide substrate; 0.2 M Tris-HCl; 30 min; positive control
T1 construct: gene CELA1

collagenase = target: T2, collagenase; test: modified ninhydrin assay, absorbance at […] nm; type: biochemical; details: collagen substrate; 5 h at 37°C; calcium chloride; positive control
T2 construct: gene colG

## O=C(O[C@@H]1Cc2c(O)cc(O)cc2O[C@@H]1c1cc(O)c(O)c(O)c1)c1cc(O)c(O)c(O)c1 [Epigallocatechin gallate]
elastase
  IC50: 2620 mg/L (≈ 5720 µM)
collagenase
  IC50: 40 mg/L (≈ 87.3 µM)

From article PMC11465873, “Functional Properties and Components of Koenigia alpina Extract” (Skin Research and Technology, 2024)
